Results reported in the supplement of paper PMC11061612.

Assays:
KYM-1 (Rhabdomyosarcoma) [1] = assay: combination Emax (second highest fraction inhibited in the dose matrix, 72 h); higher = more inhibition; extreme values may be limits of the assay
Outline: (§1)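 Bliss excess equals the observed combination effect minus the expected value EA + EB − EA·EB, where EA and EB are the effects of each agent alone. Combination Emax is the second-highest inhibition within the matrix. Inhibition was scaled from CellTiter-Glo 2.0 luminescence, with 0 set by vehicle wells and 1 by blank wells, after 72 hours of two-drug dosing of cells plated in 1536-well plates.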

[2] = system: CML-T1 (Chronic Myelogenous Leukemia); assay: as above
Outline: as §1

[3] = system: LOUCY (T-Lymphoblastic Leukemia); assay: as above
Outline: as §1

[4] = system: FLO-1 (Esophageal Adenocarcinoma); assay: as above
Outline: as §1

[5] = system: SW684 (Other Solid Carcinomas); assay: as above
Outline: as §1

[6] = system: NCI-H810 (Non-Small Cell Lung Carcinoma); assay: as above
Outline: as §1

[7] = system: EB-3 (Burkitt's Lymphoma); assay: as above
Outline: as §1

[8] = system: COLO-684 (Endometrial Carcinoma); assay: as above
Outline: as §1

[9] = system: KYSE-70 (Esophageal Squamous Cell Carcinoma); assay: as above
Outline: as §1

[10] = system: LAMA-84 (Chronic Myelogenous Leukemia); assay: as above
Outline: as §1

[11] = system: PANC-02-03 (Pancreatic Carcinoma); assay: as above
Outline: as §1

[12] = system: NKM-1 (Acute Myeloid Leukemia); assay: as above
Outline: as §1

[13] = system: SK-MM-2 (Plasma Cell Myeloma); assay: as above
Outline: as §1

CHL-1 (Melanoma) [14] = assay: as above
Outline: as §1

[15] = system: RMG-I (Ovarian Carcinoma); assay: as above
Outline: as §1

[16] = system: PC-14 (Lung Adenocarcinoma); assay: as above
Outline: as §1

[17] = system: OV-90 (Ovarian Carcinoma); assay: as above
Outline: as §1

[18] = system: Becker (Low Grade Glioma); assay: as above
Outline: as §1

[19] = system: HCC-44 (Lung Adenocarcinoma); assay: as above
Outline: as §1

[20] = system: NCI-H1755 (Lung Adenocarcinoma); assay: as above
Outline: as §1

KYM-1 (Rhabdomyosarcoma) [21] = assay: Bliss excess, mean over the matrix (fraction); higher = more synergy
Outline: as §1

[22] = system: CML-T1 (Chronic Myelogenous Leukemia); assay: as above
Outline: as §1

[23] = system: LOUCY (T-Lymphoblastic Leukemia); assay: as above
Outline: as §1

[24] = system: FLO-1 (Esophageal Adenocarcinoma); assay: as above
Outline: as §1

[25] = system: SW684 (Other Solid Carcinomas); assay: as above
Outline: as §1

[26] = system: NCI-H810 (Non-Small Cell Lung Carcinoma); assay: as above
Outline: as §1

[27] = system: EB-3 (Burkitt's Lymphoma); assay: as above
Outline: as §1

[28] = system: COLO-684 (Endometrial Carcinoma); assay: as above
Outline: as §1

[29] = system: KYSE-70 (Esophageal Squamous Cell Carcinoma); assay: as above
Outline: as §1

[30] = system: LAMA-84 (Chronic Myelogenous Leukemia); assay: as above
Outline: as §1

[31] = system: PANC-02-03 (Pancreatic Carcinoma); assay: as above
Outline: as §1

[32] = system: NKM-1 (Acute Myeloid Leukemia); assay: as above
Outline: as §1

[33] = system: SK-MM-2 (Plasma Cell Myeloma); assay: as above
Outline: as §1

CHL-1 (Melanoma) [34] = assay: as above
Outline: as §1

[35] = system: RMG-I (Ovarian Carcinoma); assay: as above
Outline: as §1

[36] = system: PC-14 (Lung Adenocarcinoma); assay: as above
Outline: as §1

[37] = system: OV-90 (Ovarian Carcinoma); assay: as above
Outline: as §1

[38] = system: Becker (Low Grade Glioma); assay: as above
Outline: as §1

[39] = system: HCC-44 (Lung Adenocarcinoma); assay: as above
Outline: as §1

[40] = system: NCI-H1755 (Lung Adenocarcinoma); assay: as above
Outline: as §1

SMILES | combination Emax (KYM-1 (Rhabdomyosarcoma) [1]) | combination Emax [2] | combination Emax [3] | combination Emax [4] | combination Emax [5] | combination Emax [6] | combination Emax [7] | combination Emax [8] | combination Emax [9] | combination Emax [10] | combination Emax [11] | combination Emax [12] | combination Emax [13] | combination Emax (CHL-1 (Melanoma) [14]) | combination Emax [15] | combination Emax [16] | combination Emax [17] | combination Emax [18] | combination Emax [19] | combination Emax [20] | Bliss excess (KYM-1 (Rhabdomyosarcoma) [21]) | Bliss excess [22] | Bliss excess [23] | Bliss excess [24] | Bliss excess [25] | Bliss excess [26] | Bliss excess [27] | Bliss excess [28] | Bliss excess [29] | Bliss excess [30] | Bliss excess [31] | Bliss excess [32] | Bliss excess [33] | Bliss excess (CHL-1 (Melanoma) [34]) | Bliss excess [35] | Bliss excess [36] | Bliss excess [37] | Bliss excess [38] | Bliss excess [39] | Bliss excess [40]
C=CCn1c(=O)c2cnc(Nc3ccc(N4CCN(C)CC4)cc3)nc2n1-c1cccc(C(C)(C)O)n1 [AZD1775] + CCc1c2c(nc3ccc(O)cc13)-c1cc3c(c(=O)n1C2)COC(=O)[C@]3(O)CC [SN-38] (first compound max 1 µM, partner max 0.3 µM) | 0.958 | 1 | 0.995 | 0.897 | 0.493 | 0.634 | 0.884 | 0.906 | 0.599 | 0.993 | 0.706 | 0.997 | 0.794 | 0.833 | 0.524 | 0.929 | 0.537 | 0.903 | 0.935 | 0.827 | -0.0535 | -0.002 | 0.0229 | 0.0261 | 0.0144 | -0.0454 | -0.0467 | -0.0122 | -0.0358 | -0.0202 | 0.0042 | 0.0008 | 0.0271 | 0.0518 | -0.0848 | -0.0001 | -0.101 | -0.0094 | 0.0458 | 0.0139
C=CCn1c(=O)c2cnc(Nc3ccc(N4CCN(C)CC4)cc3)nc2n1-c1cccc(C(C)(C)O)n1 [AZD1775] + Nc1ccn([C@@H]2O[C@H](CO)[C@@H](O)C2(F)F)c(=O)n1 [Gemcitabine] (first compound max 1 µM, partner max 0.3 µM) | 0.999 | 0.998 | 0.995 | 0.904 | 0.382 | 0.828 | 0.811 | 0.718 | 0.565 | 0.963 | 0.588 | 1 | 0.623 | 0.725 | 0.401 | 0.917 | 0.555 | 0.584 | 0.916 | 0.786 | 0.0009 | 0.0273 | 0.108 | 0.0955 | -0.0333 | -0.0695 | 0.0105 | -0.0674 | -0.002 | 0.0286 | 0.0035 | 0.0002 | 0.0664 | 0.0089 | -0.0608 | 0.0198 | -0.0166 | 0.0271 | 0.0711 | 0.0304
CN(CCO)CC[C@H](CSc1ccccc1)Nc1ccc(S(=O)(=O)NC(=O)c2ccc(N3CCC([C@@H](O)c4ccccc4-c4ccc(Cl)cc4)CC3)cc2)cc1S(=O)(=O)C(F)(F)F [AZD4320] + CC(=O)O[C@H]1C(=O)[C@@]2(C)[C@H]([C@H](OC(=O)c3ccccc3)[C@]3(O)C[C@H](OC(=O)[C@H](O)[C@@H](NC(=O)c4ccccc4)c4ccccc4)C(C)=C1C3(C)C)[C@]1(OC(C)=O)CO[C@@H]1C[C@@H]2O [Paclitaxel] (first compound max 1 µM, 7x7, partner max 3 µM) | 1 | 1 | 1 | 0.98 | 0.952 | 0.992 | 0.754 | 0.663 | 0.597 | 1 | 0.597 | 1 | 1 | 1 | 0.94 | 0.996 | 0.932 | 1 | 0.876 | 0.9 | 0.017 | -0.0236 | 0.0229 | 0.0005 | 0.164 | 0.237 | -0.0733 | 0.0345 | 0.0722 | 0.0001 | 0.0109 | 0.0078 | 0.0531 | 0.0578 | 0.133 | 0.0125 | 0.0935 | 0.0744 | -0.0294 | 0.0211
CN(CCO)CC[C@H](CSc1ccccc1)Nc1ccc(S(=O)(=O)NC(=O)c2ccc(N3CCC([C@@H](O)c4ccccc4-c4ccc(Cl)cc4)CC3)cc2)cc1S(=O)(=O)C(F)(F)F [AZD4320] + CS(=O)(=O)CCNCc1ccc(-c2ccc3ncnc(Nc4ccc(OCc5cccc(F)c5)c(Cl)c4)c3c2)o1 [Lapatinib] (first compound max 1 µM, 7x7, partner max 10 µM) | 0.395 | 1 | 1 | 0.842 | 0.823 | 0.518 | 0.605 | 0.34 | 0.177 | 0.989 | 0.875 | 1 | 1 | 0.718 | 0.972 | 0.964 | 0.849 | 0.912 | 0.472 | 0.702 | 0.021 | -0.0077 | 0.0586 | 0.0298 | -0.0169 | -0.0665 | -0.0721 | -0.0766 | -0.0022 | 0.0411 | 0.0082 | 0.0418 | 0.0729 | 0.0412 | 0.0763 | 0.0043 | -0.02 | 0.0497 | -0.0303 | 0.0015
CN(CCO)CC[C@H](CSc1ccccc1)Nc1ccc(S(=O)(=O)NC(=O)c2ccc(N3CCC([C@@H](O)c4ccccc4-c4ccc(Cl)cc4)CC3)cc2)cc1S(=O)(=O)C(F)(F)F [AZD4320] + Nc1ccn([C@@H]2O[C@H](CO)[C@@H](O)C2(F)F)c(=O)n1 [Gemcitabine] (first compound max 1 µM, 7x7, partner max 0.3 µM) | 1 | 1 | 1 | 0.776 | 0.524 | 0.593 | 0.469 | 0.429 | 0.159 | 0.979 | 0.482 | 1 | 1 | 0.686 | 0.866 | 0.699 | 0.88 | 0.8 | 0.641 | 0.463 | 0.001 | -0.0189 | 0.0431 | 0.0443 | -0.0442 | -0.0458 | 0.0031 | -0.0157 | -0.0342 | 0.0346 | -0.071 | 0.0029 | 0.0061 | 0.0768 | 0.0063 | 0.0292 | 0.0718 | 0.0818 | 0.0237 | -0.0211
C[C@@H]1COCCN1c1cc(C2([S@](C)(=N)=O)CC2)nc(-c2ccnc3[nH]ccc23)n1 [AZD6738] + C1CC(C1)(C(=O)[O-])C(=O)[O-].N.N.[Pt+2] [Carboplatin] (first compound max 10 µM, 7x7, partner max 10 µM) | 0.904 | 0.976 | 0.972 | 0.619 | 0.342 | 0.458 | 0.751 | 0.756 | 0.266 | 0.92 | 0.433 |  | 0.319 | 0.798 | 0.337 | 0.807 | 0.345 | 0.648 | 0.288 | 0.807 | 0.0183 | -0.031 | 0.0054 | -0.0416 | -0.0968 | -0.116 | -0.0876 | -0.0356 | -0.0571 | -0.0368 | -0.0433 | -0.0102 | -0.0045 | -0.0178 | -0.0502 | -0.0164 | -0.0638 | -0.0224 | -0.0585 | -0.0571
